Assay results from patent publication US6737547B1, “Compositions containing and methods of using N-acyl-1H-aminoindenes” (Teva Pharmaceutical Industries, Ltd., priority 1998, dated 2004).
Like-named read-outs stand apart in the source and are kept apart here.

Experiments:
mice = experiment: Protection against hypobaric hypoxia in mice (survival time); assay type: in vivo
Procedure: The apparatus used consisted of two chambers A and B connected by a three-way valve. […] The air in chamber A was evacuated to a pressure of 100 mm Hg. The three way valve was turned to disconnect chamber B from room air and to connect it to chamber A. At this point, the pressure in B fell to 200 mm Hg. Survival of residing mice was determined up to a maximum exposure of 15 minutes, and is defined as the time between onset of hypoxia to cessation of respiration.

[1] = test system: guinea-pig ileal preparation; experiment: Decrease in contractile response of guinea-pig ileum evoked by the nicotinic agonist DMPP; design: Emax: dose or concentration left out as unconfirmed; settings: Cavia porcellus
Procedure: A strip of guinea-pig ileum is mounted in an organ bath, as described in EXAMPLE 10. 1-N,N-dimethyl-4-N-phenylpiperazinium chloride (DMPP) is added at intervals of about 15 minutes in order of increasing dose, to cause bath concentrations in the range of 0.1-10 uM. A brief contraction follows each addition. The amplitude of the contractile response is used to derive a dose-response relationship for DMPP. Usually, a bath concentration of 1 uM DMPP will give 90-100% of the maximal response obtainable in the given preparation. One of two procedures follows this: A dose-response of a test compound is determined in the presence of a fixed concentration of DMPP. This is done by incubating the preparation with a given concentration of the test compound, then challenging it with DMPP at a dose to give 1 uM bath concentration. The procedure is repeated with the next higher concentration of the test compound. In the other procedure, the dose-response of DMPP is determined in the presence of a fixed bath concentration of the test compound, usually 200 uM.
When intramural nerve stimulation occurs, as in the case of electrical stimulation, the contractile effector substance is released from nerve endings by a depolarization wave that propagates along the parasympathetic nerve fiber until its junction with smooth muscle of the ileum. An alternative but not equivalent procedure is stimulation of parasympathetic ganglia by an appropriate nicotinic agonist such as 1-N,N-dimethyl-4-N-phenylpiperazinium chloride (DMPP). Stimulation of parasympathetic ganglia causes a depolarization wave in the post-ganglionic nerve fiber which terminates on the smooth muscle of the ileum, causing release of contractile effector and contraction (see, for example, E. S. Vizi, Acetylcholine release from guinea-pig ileum by parasympathetic ganglion stimulants and gastrin-like polypeptides, Br. J. Pharmacol. 47, 765-77. 1973).

Male ICR mice = experiment: Protection against maximal electroshock-induced seizure in mice (MES); assay type: in vivo; settings: for protected/total: electroshock 30 min after medication; for ED50: Mus musculus, median effective dose, maximal electroshock, mice, ip, read-out: ED50 (95% confidence limits)
Procedure: Male ICR mice were used. The rodent shocker apparatus consisted of a shock stimulator Type 221 (Hugo Sachs Elektronik, Germany) with a current setting for mice. Thirty minutes after medication with a given agent, given intraperitoneally as a fine slurry in methyl cellulose 0.5% in distilled water, each mouse received an electroshock of 50 mA for 0.2 seconds, applied to the eye, at a maximum of 250 V/300 mA. The ratio of mice protected against seizure in a group of four per dose was determined and used as an indicator of neuroprotective activity.
Protection of mice against seizures induced by electroshock is a widely used model to probe for potential anti-epileptic agents (see, for example, Y. I. Sohn et al., Anticonvulsant properties of diphenylthiohydantoin, Arch. Int. Pharmacodyn. 188, 284-289, 1970).

[2] = test system: guinea-pig ileal preparation; experiment: Potentiation of adenosine depression of contractile response, procedure I (in the presence of test compound); settings: drug present
Procedure: (§1) The test system used is the intramural electrically-stimulated guinea-pig ileal preparation as described in EXAMPLE 10. Adenosine added to the organ bath in rising concentrations in the range 0.1-10 uM causes a dose-dependent decrease in contraction amplitude, with an EC50 of about 1 uM.
In procedure I, the effect of a given concentration of adenosine, usually, 0.2 or 0.4 uM was first determined and related to the full contractile response in the absence of adenosine. […] The amplitude of the contractile response was recorded. Now, adenosine was added at the same dose initially used, and the effect of adenosine in the presence of the test compound was recorded.
(§2) The calculated effect is the product of the responses to each of the two agents when applied separately. The potentiation ratio is defined as (100%found)/(100-% calculated).

[3] = test system: guinea-pig ileal preparation; experiment: Decrease of contractile response to intramural electric stimulation in the guinea-pig ileal preparation; settings: Cavia porcellus
Procedure: A 2 cm-long section of the distal ileum freshly dissected from a CO2-asphyxiated guinea pig is cleaned from adhering tissue and mounted in an organ bath (5 mL) containing Krebs solution constantly aerated with oxygen containing 5% CO2. The initial tension is adjusted at 5 g per strip. Tension is monitored isometrically with a Grass FTC3 force transducer. Intramural electric stimulation is delivered through a platinum electrode from a Grass stimulator model s88, s44 at supramaximal voltage (V) and a frequency of 0.1/s. The preparation develops a rhythmic contractile response at maximal amplitude which is stable over time. Addition of test drugs to the organ bath causes a dose-dependent decrease in contraction amplitude which is stable over 5-8 minutes. The relative decrease in contractile response indicates the relative potency of a given agent in a series.
Blocking or decreasing neural excitability evoked by programmed electric stimulation is another indicator of a compound's potential neuroprotective activity. A convenient test system uses the guinea-pig ileal preparation mounted in an organ bath (see, for example, Eiichi Hayashi et al., European J. Pharmacol 48, 297-307, 1978).

[4] = test system: guinea-pig ileal preparation; experiment: Potentiation of adenosine depression of contractile response, procedure II (after exposure to and washout of test compound); settings: for Mean potentiation ratio ± SEM / potentiation ratio, Max / potentiation ratio, Min: adenosine 0.4 uM, after exposure and washout, 5, 50-400, 6, 50-400; for Mean potentiation ratio ± SEM: drug conc. (uM): 3, 100-400, 2a, 1000, 2, 1000; for potentiation ratio, Max / potentiation ratio, Min: drug conc. range (uM): 3, 100-400; for potentiating effect retained after wash-out from the organ bath (in words): guinea pig ileal preparation after wash-out
Procedure: as §1, §2
In all cases, the difference between the calculated and observed response was statistically significant. […] In procedure II, the dose response to adenosine was determined before and after exposure of the preparation to the test drug and washout of the test drug from the organ bath. In this case, significant potentiation of adenosine was observed even though the test drug had been washed out from the organ bath. In fact, the potentiation ratio, as defined earlier, was even higher than found in the presence of the test compounds (Procedure I), reaching very high values.

[5] = Mus musculus, 12.5 mg/kg, ip, mice, 200 mm Hg, read-out: survival ± SD (survival time as percent of vehicle control)
[6] = Mus musculus, 25 mg/kg, ip, mice, 200 mm Hg, read-out: survival ± SD (survival time as percent of vehicle control)
[7] = Mus musculus, 50 mg/kg, ip, mice, 200 mm Hg, read-out: survival ± SD (survival time as percent of vehicle control)
[8] = dose of 25 mg/kg, listed in decreasing order of activity
[9] = calculated from logit plot, inhibiting contractile response to 1 uM DMPP, read-out: EC50
[10] = Mus musculus, ip, mice, 200 mm Hg, read-out: survival ± SD (survival time as percent of vehicle control)
[11] = adenosine 0.4 uM, drug conc. range (uM): 3, 20-400, 5, 50-200, 6, 25-50
[12] = calculated from logit plot, contractile response to intramural electric stimulation, read-out: EC50
[13] = Mus musculus, ip, read-out: survival ± SD (survival time as percent of vehicle control)
[14] = adenosine 0.1 uM, drug conc. range 40-400 uM
[15] = adenosine 0.2 uM, drug conc. range 40-400 uM

## O=CNC1=CCc2cc(Cl)ccc21 [Compound 7, N-formyl-6-chloro-3-amino-1H-indene]
mice; [5]
  response vs control in vivo at 12.5 mg/kg: 357 ± 299%
mice; [6]
  response vs control in vivo at 25 mg/kg: 467 ± 239%
mice; [7]
  response vs control in vivo at 50 mg/kg: 893 ± 433%
mice; [8]
  activity in the hypobaric hypoxia model (in words): strong activity

## CC(=O)NC1=CCc2cc(Cl)ccc21 [Compound 6, N-Acetyl-3-amino-6-chloro-1H-indene]
[1]; [9]
  EC50: 27 µM
mice; [6]
  response vs control in vivo at 25 mg/kg: 393 ± 110%
mice; [7]
  response vs control in vivo at 50 mg/kg: 234 ± 120%
mice; [10]
  response vs control in vivo at 100 mg/kg: 294 ± 267%
mice; [8]
  activity in the hypobaric hypoxia model (in words): strong activity
Male ICR mice; 50 mg/kg intraperitoneally
  protected/total: 2/4
Male ICR mice; 100 mg/kg intraperitoneally
  protected/total: 4/4
Male ICR mice
  ED50: 50 mg/kg
[2]; [11]
  Mean potentiation ratio ± SEM: 1.93 ± 0.39
  potentiation ratio, Max: 2.32
  potentiation ratio, Min: 1.54
[3]; [12]
  EC50: 133 µM
[4]
  Mean potentiation ratio ± SEM: 8.82 ± 1.2
  potentiation ratio, Max: 12.28
  potentiation ratio, Min: 6.86
  potentiating effect retained after wash-out from the organ bath (in words): prolonged potentiating effect
[4]; after exposure to and washout of the potentiating agent
  rate of restoration of the original response to adenosine after washout: slowest

## CCCC(CCC)C(=O)[O-].[Na+] [Sodium valproate, sodium valproate, reference compound]
Male ICR mice; 280 mg/kg
  protected/total: 1/8
Male ICR mice; 310 mg/kg
  protected/total: 2/8
Male ICR mice; 340 mg/kg
  protected/total: 4/8
Male ICR mice; 400 mg/kg
  protected/total: 6/8
Male ICR mice; 600 mg/kg
  protected/total: 8/8
Male ICR mice
  ED50: 350 mg/kg

## Nc1ncnc2c1ncn2[C@@H]1O[C@H](CO)[C@@H](O)[C@H]1O [Adenosine, adenosine, reference compound]
[3]; adenosine added in rising concentrations 0.1-10 uM, electrically-stimulated ileal preparation, read-out: EC50 of decrease in contraction amplitude
  EC50: ~1 µM

## C[N+]1(C)CCN(c2ccccc2)CC1 [DMPP, 1-N,N-dimethyl-4-N-phenylpiperazinium chloride, reference compound]
[1]; read-out: contractile response as % of the maximal response obtainable
  Emax: 90 to 100%

## CC(=O)NC1=CCCc2ccccc21 [Compound 4, N-Acetyl-4-amino-1,2-dihydronaphthalene]
[1]
  EC50: 193 µM
mice; [13]
  response vs control in vivo at 25 mg/kg: 156 ± 24%
mice; dose not given
  activity in the hypobaric hypoxia model (in words): inactive
Male ICR mice; 75 mg/kg intraperitoneally
  protected/total: 0/4
Male ICR mice; 100 mg/kg intraperitoneally
  protected/total: 3/4
Male ICR mice
  ED50: 92.3 mg/kg
[3]; [12]
  EC50: 752 µM

## O=CNC1=CCc2ccccc21 [Compound 5, N-Formyl-3-amino-1H-indene]
[1]; [9]
  EC50: 34 µM
mice; [5]
  response vs control in vivo at 12.5 mg/kg: 248 ± 154%
mice; [6]
  response vs control in vivo at 25 mg/kg: 586 ± 253%
mice; [7]
  response vs control in vivo at 50 mg/kg: 331 ± 272%
mice; [10]
  response vs control in vivo at 100 mg/kg: 489 ± 286%
mice; [8]
  activity in the hypobaric hypoxia model (in words): strong activity
Male ICR mice; 50 mg/kg intraperitoneally
  protected/total: 0/4
Male ICR mice; 75 mg/kg intraperitoneally
  protected/total: 1/4
Male ICR mice; 100 mg/kg intraperitoneally
  protected/total: 4/4
Male ICR mice
  ED50: 79.4 mg/kg
[2]; [11]
  Mean potentiation ratio ± SEM: 2.19 ± 0.36
  potentiation ratio, Max: 2.60
  potentiation ratio, Min: 1.47
[3]; [12]
  EC50: 188 µM
[4]
  Mean potentiation ratio ± SEM: 5.55 ± 1.0
  potentiation ratio, Max: 7.28
  potentiation ratio, Min: 3.78
  potentiating effect retained after wash-out from the organ bath (in words): prolonged potentiating effect

## CC(=O)NC1CCc2cc(Cl)ccc21 (centres unmarked) [Compound 13, reference compound]
mice; [7]
  response vs control in vivo at 50 mg/kg: 148 ± 77%
mice; [10]
  response vs control in vivo at 100 mg/kg: 267 ± 151%

## COC(=O)NC1=CCc2ccccc21 [Compound 8, N-Methoxycarbonyl-3-amino-1H-indene]
mice; [13]
  response vs control in vivo at 12.5 mg/kg: 195 ± 90%
  response vs control in vivo at 25 mg/kg: 402 ± 348%
  response vs control in vivo at 50 mg/kg: 547 ± 327%
mice; [8]
  activity in the hypobaric hypoxia model (in words): strong activity

## CC(=O)NC1CCc2ccccc21 (centres unmarked) [Compound 2, N-acetyl-1-aminoindan, reference compound]
mice; [10]
  response vs control in vivo at 100 mg/kg: 200%
[2]; [14]
  Mean potentiation ratio ± SEM: 1.35 ± 0.07
  potentiation ratio, Max: 1.49
  potentiation ratio, Min: 1.16
[2]; [15]
  Mean potentiation ratio ± SEM: 1.24 ± 0.16
  potentiation ratio, Max: 1.51
  potentiation ratio, Min: 0.79
[3]; [12]
  EC50: 1840 µM
[4]
  Mean potentiation ratio ± SEM: 0.87

## CN1C(=O)CN=C(c2ccccc2)c2cc(Cl)ccc21 [Diazepam, diazepam, reference compound]
mice; [13]
  response vs control in vivo at 10 mg/kg: 316 ± 78%

## CCCC(C)C1(CC)C(=O)N=C([O-])NC1=O.[Na+] (centres unmarked) [Nembutal, reference compound]
mice; 40 mg/kg, ip, mice, 200 mm Hg
  survival ± SD (survival time as percent of vehicle control): 253 ± 200% of vehicle control
